Test [1] addresses T1, human Kv1.3 voltage-gated K+ channel (Homo sapiens, UniProt P22001).
T1 construct: host or cells: CHO-DUKX
In words: cell-based. The note with it: inhibition of thallium flux, CHO-DUKX cells with human Kv1.3; read-out: IC50.

A further test has as its target T2, Kv1.2 (Homo sapiens, UniProt P16389).
T2 construct: expressed in transfected cells; host or cells: Chinese Hamster Ovary (CHO)
Kind of test: cell-based. Conditions: CHO cells, whole-cell patch clamp; read-out: Potency IC50 (nM) Kv1.2.

A further test concerns the target Rat whole blood (Rattus norvegicus, UniProt P15384).
For another test, the target named is T3, Kv1.6 (Homo sapiens, UniProt P17658).
T3 construct: expressed in transfected cells; host or cells: Chinese Hamster Ovary (CHO)
T3 sequence (P17658 whole entry): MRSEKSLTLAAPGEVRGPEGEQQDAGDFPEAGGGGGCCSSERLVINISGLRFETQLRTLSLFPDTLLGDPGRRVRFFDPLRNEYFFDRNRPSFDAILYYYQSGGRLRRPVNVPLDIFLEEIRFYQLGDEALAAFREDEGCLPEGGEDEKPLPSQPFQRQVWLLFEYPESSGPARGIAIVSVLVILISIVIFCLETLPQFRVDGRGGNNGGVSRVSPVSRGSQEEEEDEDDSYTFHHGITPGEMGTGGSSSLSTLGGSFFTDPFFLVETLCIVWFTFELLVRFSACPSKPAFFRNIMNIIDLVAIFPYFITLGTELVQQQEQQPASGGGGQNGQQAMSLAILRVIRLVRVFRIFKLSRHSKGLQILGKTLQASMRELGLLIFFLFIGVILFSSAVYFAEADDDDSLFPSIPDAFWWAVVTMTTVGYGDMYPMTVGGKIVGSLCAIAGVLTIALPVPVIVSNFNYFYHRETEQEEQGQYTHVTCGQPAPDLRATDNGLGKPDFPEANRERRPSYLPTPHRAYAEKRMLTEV
In words: cell-based. Conditions: CHO cells, whole-cell patch clamp; read-out: Potency IC50 (nM) Kv1.6. A general note: In patch-clamp work, channel activity is measured electrically.

A further test deals with T4, Kv1.3 (Homo sapiens, UniProt P22001).
T4 construct: expressed in transfected cells; host or cells: Chinese Hamster Ovary (CHO)
T4 sequence (P22001 whole entry): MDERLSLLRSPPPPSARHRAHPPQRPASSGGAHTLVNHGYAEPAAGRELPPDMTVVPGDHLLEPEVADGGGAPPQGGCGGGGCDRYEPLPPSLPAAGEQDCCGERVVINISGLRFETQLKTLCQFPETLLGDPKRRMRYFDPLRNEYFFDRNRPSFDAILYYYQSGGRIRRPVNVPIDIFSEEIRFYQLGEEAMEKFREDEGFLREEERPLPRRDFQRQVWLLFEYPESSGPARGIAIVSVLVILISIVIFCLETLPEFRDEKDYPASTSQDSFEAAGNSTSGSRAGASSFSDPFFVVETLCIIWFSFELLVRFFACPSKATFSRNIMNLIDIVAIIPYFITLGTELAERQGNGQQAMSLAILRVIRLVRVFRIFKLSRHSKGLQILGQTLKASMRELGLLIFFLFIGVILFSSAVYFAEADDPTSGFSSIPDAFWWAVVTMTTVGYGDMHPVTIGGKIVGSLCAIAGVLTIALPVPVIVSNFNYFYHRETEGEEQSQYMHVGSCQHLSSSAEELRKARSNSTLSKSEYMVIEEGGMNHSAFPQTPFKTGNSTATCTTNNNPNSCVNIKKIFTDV
Kind of test: cell-based. The note with it: CHO cells, whole-cell patch clamp; read-out: Potency IC50 (nM) Kv1.3.

The next test deals with T5, Kv1.1 (Homo sapiens, UniProt Q09470).
T5 construct: expressed in transfected cells; host or cells: Chinese Hamster Ovary (CHO)
T5 sequence (Q09470 whole entry): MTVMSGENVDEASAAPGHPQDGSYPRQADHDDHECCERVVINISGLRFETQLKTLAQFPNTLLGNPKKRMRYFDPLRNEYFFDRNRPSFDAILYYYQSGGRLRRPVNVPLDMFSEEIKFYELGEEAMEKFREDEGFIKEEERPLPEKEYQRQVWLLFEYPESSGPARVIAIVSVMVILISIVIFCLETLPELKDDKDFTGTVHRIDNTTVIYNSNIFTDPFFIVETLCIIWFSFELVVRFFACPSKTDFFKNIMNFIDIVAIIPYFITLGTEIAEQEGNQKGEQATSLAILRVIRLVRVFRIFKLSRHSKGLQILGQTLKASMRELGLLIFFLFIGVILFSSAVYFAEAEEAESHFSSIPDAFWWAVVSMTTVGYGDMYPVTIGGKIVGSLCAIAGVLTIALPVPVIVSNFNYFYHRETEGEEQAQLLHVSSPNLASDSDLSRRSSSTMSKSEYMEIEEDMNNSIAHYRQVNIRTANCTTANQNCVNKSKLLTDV
In words: cell-based. The note with it: for IC50: CHO cells, whole-cell patch clamp, read-out: Potency IC50 (nM) Kv1.1; for Selectivity Kv1.1/Kv1.3: ratio IC50[Kv1.1]/IC50[Kv1.3].

This note sets out measurements from patent publication US11780893B2, “Kv1.3 blockers” (Zealand Pharma A/S, priority 2019, dated 2023).

Bridge positions count the residues as written; N and C are the ends. Square brackets hold non-standard residues; d marks the D form. Peptide text beside a SMILES is read from it. Nle = CCCC[C@H](N)C(=O)O

Broadly, the IC50 is the midpoint of a concentration-inhibition curve.

Rat whole blood, sequence (P15384 whole entry): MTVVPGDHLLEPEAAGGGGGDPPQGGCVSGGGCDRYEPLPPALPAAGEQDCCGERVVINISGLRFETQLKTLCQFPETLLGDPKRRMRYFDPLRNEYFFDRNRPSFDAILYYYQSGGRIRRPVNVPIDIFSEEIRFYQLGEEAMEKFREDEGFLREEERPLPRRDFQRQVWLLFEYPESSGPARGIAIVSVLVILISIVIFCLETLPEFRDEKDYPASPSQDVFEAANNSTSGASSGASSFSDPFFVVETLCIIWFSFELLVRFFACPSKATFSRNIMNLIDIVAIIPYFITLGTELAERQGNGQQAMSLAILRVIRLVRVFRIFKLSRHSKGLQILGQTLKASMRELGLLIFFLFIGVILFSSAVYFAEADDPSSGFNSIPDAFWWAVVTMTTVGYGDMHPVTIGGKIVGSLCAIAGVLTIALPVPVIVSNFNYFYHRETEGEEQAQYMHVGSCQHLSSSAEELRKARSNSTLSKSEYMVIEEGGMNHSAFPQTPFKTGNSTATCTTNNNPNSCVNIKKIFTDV
T1 sequence (P22001 whole entry): as the sequence (P22001 whole entry) above
T2 sequence (P16389 whole entry): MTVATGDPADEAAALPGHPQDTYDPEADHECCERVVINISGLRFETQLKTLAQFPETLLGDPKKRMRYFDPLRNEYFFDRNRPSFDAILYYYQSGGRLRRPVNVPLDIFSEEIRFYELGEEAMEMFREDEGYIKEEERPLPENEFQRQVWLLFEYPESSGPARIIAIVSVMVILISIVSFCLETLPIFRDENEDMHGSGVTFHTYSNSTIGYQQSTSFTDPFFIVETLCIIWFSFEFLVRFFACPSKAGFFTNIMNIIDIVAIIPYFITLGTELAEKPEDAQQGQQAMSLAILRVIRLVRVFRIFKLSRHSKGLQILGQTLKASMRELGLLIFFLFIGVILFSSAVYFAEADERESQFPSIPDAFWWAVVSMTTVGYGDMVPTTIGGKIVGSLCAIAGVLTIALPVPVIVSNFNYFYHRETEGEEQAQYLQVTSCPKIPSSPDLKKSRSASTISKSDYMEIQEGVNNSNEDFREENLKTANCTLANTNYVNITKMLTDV

Take `CCCC[C@@H]1NC(=O)[C@@H]2CSSC[C@H](NC(=O)[C@H](CCCNC(=N)N)NC(=O)[C@H](CCCC)NC(=O)[C@H](CC(=O)O)NC(=O)[C@H](CCCC)NC(=O)[C@@H](N)CC(N)=O)C(=O)N[C@@H](CCCNC(=N)N)C(=O)N[C@@H](C)C(=O)N[C@@H](CO)C(=O)N[C@@H](C(C)C)C(=O)N[C@@H](CCC(=O)O)C(=O)N[C@H]3CSSC[C@H](NC(=O)[C@H](CCCCN)NC(=O)[C@H](CCCCN)NC(=O)[C@H](CC(N)=O)NC1=O)C(=O)N[C@@H](CCCCN)C(=O)N[C@H](C(=O)N[C@@H](Cc1ccc(O)cc1)C(=O)N1CCC[C@H]1C(=O)N[C@@H](CCCNC(=N)N)C(N)=O)CSSC[C@H](NC(=O)[C@H](CCCCN)NC(=O)[C@H](CCC(N)=O)NC(=O)[C@H](CCCCN)NC3=O)C(=O)N[C@@H](CC(C)C)C(=O)N[C@@H](CCCCN)C(=O)N[C@@H](C)C(=O)N[C@@H]([C@@H](C)CC)C(=O)NCC(=O)N[C@@H](CO)C(=O)N[C@@H]([C@@H](C)CC)C(=O)N[C@@H](Cc1ccccc1)C(=O)NCC(=O)N[C@@H](CCCCN)C(=O)N2` [Compound 42] (H-N[Nle]D[Nle]RCRASVECKQKCLKAIGSIFGKC[Nle]NKKCKCYPR-NH2; disulfide 6-27, 12-32, 16-34): the IC50 in test [1] was 0.087 nM; at Kv1.2, 109 nM; against Rat whole blood, ≤ 1 nM; on Kv1.6, 316 nM; at Kv1.3, 0.16 nM; at Kv1.1 it was > 3000 nM. The “Selectivity Kv1.1/Kv1.3” value on Kv1.1 was >18600.

For `CCCC[C@@H]1NC(=O)[C@@H]2CSSC[C@H](NC(=O)[C@H](CCCNC(=N)N)NC(=O)[C@H](CCCC)NC(=O)[C@H](CO)NC(=O)[C@H](CCCC)NC(=O)[C@@H](N)CC(N)=O)C(=O)N[C@@H](CO)C(=O)N[C@@H](C)C(=O)N[C@@H](CO)C(=O)N[C@@H](C(C)C)C(=O)N[C@@H](CCC(=O)O)C(=O)N[C@H]3CSSC[C@H](NC(=O)[C@H](CCCCN)NC(=O)[C@H](CCCCN)NC(=O)[C@H](CC(N)=O)NC1=O)C(=O)N[C@@H](CCCCN)C(=O)N[C@H](C(=O)N[C@@H](Cc1ccc(O)cc1)C(=O)N1CCC[C@H]1C(=O)N[C@@H](CCCNC(=N)N)C(N)=O)CSSC[C@H](NC(=O)[C@H](CCCCN)NC(=O)[C@H](CCC(N)=O)NC(=O)[C@H](CCCCN)NC3=O)C(=O)N[C@@H](CC(C)C)C(=O)N[C@@H](CCCCN)C(=O)N[C@@H](C)C(=O)N[C@@H]([C@@H](C)CC)C(=O)NCC(=O)N[C@@H](CO)C(=O)N[C@@H]([C@@H](C)CC)C(=O)N[C@@H](Cc1ccccc1)C(=O)NCC(=O)N[C@@H](CCCCN)C(=O)N2` [Compound 46] (H-N[Nle]S[Nle]RCSASVECKQKCLKAIGSIFGKC[Nle]NKKCKCYPR-NH2; disulfide 6-27, 12-32, 16-34), the IC50 is 0.11 nM in test [1]; 302 nM at Kv1.2; ≤ 1 nM against Rat whole blood; 1390 nM on Kv1.6; 0.32 nM at Kv1.3; > 3000 nM on Kv1.1. The “Selectivity Kv1.1/Kv1.3” value on Kv1.1 is recorded as >9400.

As for `CCCC[C@@H]1NC(=O)[C@@H]2CSSC[C@H](NC(=O)[C@H](CCCNC(=N)N)NC(=O)[C@H](CCCC)NC(=O)[C@H](CC(=O)O)NC(=O)[C@H](CCCC)NC(=O)[C@@H](N)CC(N)=O)C(=O)N[C@@H](CO)C(=O)N[C@@H](Cc3c[nH]cn3)C(=O)N[C@@H](CO)C(=O)N[C@@H](C(C)C)C(=O)N[C@@H](CCC(=O)O)C(=O)N[C@H]3CSSC[C@H](NC(=O)[C@H](CCCCN)NC(=O)[C@H](CCCCN)NC(=O)[C@H](CC(N)=O)NC1=O)C(=O)N[C@@H](CCCCN)C(=O)N[C@H](C(=O)N[C@@H](Cc1ccc(O)cc1)C(=O)N1CCC[C@H]1C(=O)N[C@@H](CCCNC(=N)N)C(N)=O)CSSC[C@H](NC(=O)[C@H](CCCCN)NC(=O)[C@H](CCC(N)=O)NC(=O)[C@H](CCCCN)NC3=O)C(=O)N[C@@H](CC(C)C)C(=O)N[C@@H](CCCCN)C(=O)N[C@@H](C)C(=O)N[C@@H]([C@@H](C)CC)C(=O)NCC(=O)N[C@@H](CO)C(=O)N[C@@H]([C@@H](C)CC)C(=O)N[C@@H](Cc1ccccc1)C(=O)NCC(=O)N[C@@H](CCCCN)C(=O)N2` [Compound 47] (H-N[Nle]D[Nle]RCSHSVECKQKCLKAIGSIFGKC[Nle]NKKCKCYPR-NH2; disulfide 6-27, 12-32, 16-34), the IC50 in test [1] was 0.12 nM; at Kv1.2, 772 nM; at Rat whole blood it was ≤ 1 nM; on Kv1.6, 609 nM; at Kv1.3 it was 0.54 nM; at Kv1.1, > 3000 nM. In addition, the “Selectivity Kv1.1/Kv1.3” value on Kv1.1 was >5600.

`CCCC[C@@H]1NC(=O)[C@@H]2CSSC[C@H](NC(=O)[C@H](CCCNC(=N)N)NC(=O)[C@H](CCCC)NC(=O)[C@H](CC(=O)O)NC(=O)[C@H](CCCC)NC(=O)[C@@H](N)CC(N)=O)C(=O)N[C@@H](CO)C(=O)N[C@@H](C)C(=O)N[C@@H](CO)C(=O)N[C@@H](C(C)C)C(=O)N[C@@H](CCC(=O)O)C(=O)N[C@H]3CSSC[C@H](NC(=O)[C@H](CCCCN)NC(=O)[C@H](CCCCN)NC(=O)[C@H](CC(N)=O)NC1=O)C(=O)N[C@@H](CCCCN)C(=O)N[C@H](C(=O)N[C@@H](Cc1ccc(O)cc1)C(=O)N1CCC[C@H]1C(=O)N[C@@H](CCCNC(=N)N)C(N)=O)CSSC[C@H](NC(=O)[C@H](CCCCN)NC(=O)[C@H](CCC(N)=O)NC(=O)[C@H](CCCCN)NC3=O)C(=O)N[C@@H](CCCCN)C(=O)N[C@@H](C)C(=O)N[C@@H]([C@@H](C)CC)C(=O)NCC(=O)N[C@@H](CO)C(=O)N[C@@H]([C@@H](C)CC)C(=O)N[C@@H](Cc1ccccc1)C(=O)NCC(=O)N[C@@H](CCCCN)C(=O)N2` [Compound 49] (H-N[Nle]D[Nle]RCSASVECKQKCKAIGSIFGKC[Nle]NKKCKCYPR-NH2; disulfide 6-26, 12-31, 16-33): the IC50 is 0.36 nM in test [1]; 164 nM on Kv1.2; ≤ 1 nM on Rat whole blood; 946 nM at Kv1.6; 1.34 nM at Kv1.3; > 3000 nM at Kv1.1. Further, at Kv1.1, the “Selectivity Kv1.1/Kv1.3” value is on record as >2200.

For `CCCC[C@@H]1NC(=O)[C@@H]2CSSC[C@H](NC(=O)[C@H](CCCNC(=N)N)NC(=O)[C@H](CCCC)NC(=O)[C@H](CC(=O)O)NC(=O)[C@H](CCCC)NC(=O)[C@@H](N)CC(N)=O)C(=O)N[C@@H](CO)C(=O)N[C@@H](C)C(=O)N[C@@H](CO)C(=O)N[C@@H](C(C)C)C(=O)N[C@@H](CCC(=O)O)C(=O)N[C@H]3CSSC[C@H](NC(=O)[C@H](CCCCN)NC(=O)[C@H](CCCCN)NC(=O)[C@H](CC(N)=O)NC1=O)C(=O)N[C@@H](CCCCN)C(=O)N[C@H](C(=O)N[C@@H](Cc1ccc(O)cc1)C(=O)N1CCC[C@H]1C(=O)N[C@@H](CCCNC(=N)N)C(N)=O)CSSC[C@H](NC(=O)[C@H](CCCCN)NC(=O)[C@H](CCC(N)=O)NC(=O)[C@H](CCCCN)NC3=O)C(=O)N[C@@H](CC(C)C)C(=O)N[C@@H](CCCCN)C(=O)N[C@@H](C)C(=O)N[C@@H]([C@@H](C)CC)C(=O)NCC(=O)N[C@@H](CO)C(=O)N1CCC[C@H]1C(=O)N[C@@H](Cc1ccccc1)C(=O)NCC(=O)N[C@@H](CCCCN)C(=O)N2` [Compound 62] (H-N[Nle]D[Nle]RCSASVECKQKCLKAIGSPFGKC[Nle]NKKCKCYPR-NH2; disulfide 6-27, 12-32, 16-34), the IC50 in test [1] is 0.13 nM; on Kv1.2, 449 nM; at Rat whole blood it was ≤ 1 nM; on Kv1.6, 2350 nM; at Kv1.3, 0.26 nM; at Kv1.1, > 3000 nM. Further, the “Selectivity Kv1.1/Kv1.3” value at Kv1.1 was >11600.

In the case of `CCCC[C@@H]1NC(=O)[C@@H]2CSSC[C@H](NC(=O)[C@H](CCCNC(=N)N)NC(=O)[C@H](CCCC)NC(=O)[C@H](CC(=O)O)NC(=O)[C@H](CCCC)NC(=O)[C@@H](N)CC(N)=O)C(=O)N[C@@H](CO)C(=O)N[C@@H](C)C(=O)N[C@@H](CO)C(=O)N[C@@H](CCCCN)C(=O)N[C@@H](CCC(=O)O)C(=O)N[C@H]3CSSC[C@H](NC(=O)[C@H](CCCCN)NC(=O)[C@H](CCCCN)NC(=O)[C@H](CC(N)=O)NC1=O)C(=O)N[C@@H](CCCCN)C(=O)N[C@H](C(=O)N[C@@H](Cc1ccc(O)cc1)C(=O)N1CCC[C@H]1C(=O)N[C@@H](CCCNC(=N)N)C(N)=O)CSSC[C@H](NC(=O)[C@H](CCCCN)NC(=O)[C@H](CCC(N)=O)NC(=O)[C@H](CCCCN)NC3=O)C(=O)N[C@@H](CC(C)C)C(=O)N[C@@H](CCCCN)C(=O)N[C@@H](C)C(=O)N[C@@H]([C@@H](C)CC)C(=O)NCC(=O)N[C@@H](CO)C(=O)N[C@@H]([C@@H](C)CC)C(=O)N[C@@H](Cc1ccccc1)C(=O)NCC(=O)N[C@@H](CCCCN)C(=O)N2` [Compound 63] (H-N[Nle]D[Nle]RCSASKECKQKCLKAIGSIFGKC[Nle]NKKCKCYPR-NH2; disulfide 6-27, 12-32, 16-34), the IC50 in test [1] is 0.13 nM; at Kv1.2 it was 184 nM; against Rat whole blood it was ≤ 1 nM; at Kv1.6, 1230 nM; at Kv1.3, 0.31 nM; on Kv1.1, > 3000 nM. Also, at Kv1.1, the “Selectivity Kv1.1/Kv1.3” value was >9600.
